# Measured values published in patent US11993801B2, “Base-modified nucleotides as substrates for TdT-based enzymatic nucleic acid synthesis” (Illumina Singapore Pte. Ltd., priority 2020, dated 2024).
# Assays:
# [1] = molecular target: T1, TdT (Bos taurus, UniProt P06526); experiment: TdT incorporation assay (extension of 21-nt oligonucleotide, denaturing TBE-Urea gel); assay type: biochemical; conditions: for yield of 22-nt oligo (+1 product) / yield of 23-nt oligo (+2 product) / yield of 24-nt oligo (+3 product): 40 μM nucleotide
# T1 construct: purchased New England Biolab (Ipswich, MA)
# T1 sequence (P06526 whole entry): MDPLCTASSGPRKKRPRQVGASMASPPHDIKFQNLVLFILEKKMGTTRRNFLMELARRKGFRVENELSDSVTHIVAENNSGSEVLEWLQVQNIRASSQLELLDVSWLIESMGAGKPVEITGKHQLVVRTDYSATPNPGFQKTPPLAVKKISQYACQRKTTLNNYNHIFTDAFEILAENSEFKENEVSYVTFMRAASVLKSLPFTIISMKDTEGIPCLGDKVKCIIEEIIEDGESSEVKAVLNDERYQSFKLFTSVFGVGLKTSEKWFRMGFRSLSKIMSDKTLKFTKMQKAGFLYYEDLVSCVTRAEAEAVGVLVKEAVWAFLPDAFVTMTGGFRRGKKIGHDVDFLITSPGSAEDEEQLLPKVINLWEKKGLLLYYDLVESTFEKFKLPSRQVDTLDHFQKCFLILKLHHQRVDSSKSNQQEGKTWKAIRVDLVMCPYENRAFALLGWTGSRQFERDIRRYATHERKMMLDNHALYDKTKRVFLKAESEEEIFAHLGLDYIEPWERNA
# Procedure: DNA oligonucleotide sequence used for primer extension assays is: ATTCAGGACGAGCCTCAGACC (SEQ ID NO: 1)
# […] The solution was then heated at 95° C. for 5 minutes to inactivate TdT. UV cleavage of the photolabile group was done using an 8 W UV lamp at 365 nm for 10 minutes.
# (§1) Initrogen (Carlsbad, California) Novex™ TBE-Urea gel (15%) was pre-washed with 1×TBE running buffer to remove excess urea. Oligonucleotide samples (5 μL) were mixed with Novex™ TBE-Urea Sample Buffer (2×, 5 μL). The mixture was then heated at 95° C. for 5 minutes and loaded to the gel. Gels were run in a 1×TBE running buffer at up to 240 V until the bromophenol blue reached the bottom of the gel. The gel was then visualized using Gel Doc XR+ and analyzed using the gel analysis tool in the Bio-Rad (Hercules, California) Image Lab software.
# [2] = tested on: TdT; conditions: cited from earlier work
# [3] = molecular target: T1, TdT; experiment: 2 cycle incorporation and deprotection; assay type: biochemical; conditions: nucleotide 20 μM, 7 minutes at 37° C., 8 W UV lamp at 365 nm for 10 minutes per cycle (FIG. 5)
# Procedure: A 6-fluorescein-tagged 21-nt oligonucleotide (200 nM), 1× TdT buffer (NEB), TdT (2 U μL^−1) CoCl2 (NEB, 0.25 mM) and nucleotide (20 μM) in 500 μL solution was incubated at 37° C. for 7 minutes and quenched with EDTA (50 μL, 500 mM). The solution was concentrated using MilliporeSigma (Burlington, Massachusetts) Amicon Ultra-0.5 mL Centrifugal Filters (3 kDa) to a final volume of 30 μL. Sodium Acetate solution (10 μL, 3M, pH 5.0) was added to the concentrated solution and further purified using Zymo (Irvine, California) DNA Clean & Concentrator. UV cleavage of the photolabile group was done using an 8 W UV lamp at 365 nm for 10 minutes. The steps were then repeated to give the second incorporation.
# as §1
# [4] = 200 nM 21-nt oligonucleotide, 1 U μL^−1 TdT, 15 minutes
compound,measurement,setting,value
N3-PEG4-dUTP [Compound 1],yield of 22-nt oligo (+1 product),[1]; [4],55%
same,yield of 23-nt oligo (+2 product),[1]; [4],41%
same,yield of 24-nt oligo (+3 product),[1]; [4],4%
same,yield of 22-nt oligo (+1 product),[1]; 30 minutes of incubation,35%
same,yield of 23-nt oligo (+2 product),[1]; 30 minutes of incubation,56%
same,yield of 24-nt oligo (+3 product),[1]; 30 minutes of incubation,9%
CCCCSCCc1cn([C@H]2C[C@H](O)[C@@H](COP(=O)(O)OP(=O)(O)OP(=O)(O)O)O2)c2ncnc(N)c12 [7-[2-(butylsulfanyl)ethyl]-2′-deoxy-7-deazaadenosine 5′-O-triphosphate],number of incorporation events by TdT,[2],only a single incorporation event
Nc1ncnc2c1c(CCSc1ccccc1)cn2[C@H]1C[C@H](O)[C@@H](COP(=O)(O)OP(=O)(O)OP(=O)(O)O)O1 [7-[2-(phenylsulfanyl)ethyl]-2′-deoxy-7-deazaadenosine 5′-O-triphosphate],number of incorporation events by TdT,[2],only a single incorporation event
N3-PEG8-dUTP [Compound 2],yield of 22-nt oligo (+1 product),[1]; [4],88%
same,yield of 23-nt oligo (+2 product),[1]; [4],12%
same,yield of 24-nt oligo (+3 product),[1]; [4],not observed
same,yield of 23-nt oligo (+2 product),[1]; 30 minutes of incubation,22%
same,yield of 24-nt oligo (+3 product),[1]; 30 minutes of incubation,not observed
N3-PEG24-dUTP [Compound 4],yield of 22-nt oligo (+1 product),[1]; [4],quantitative
same,yield of 22-nt oligo (+1 product),[1]; 30 minutes of incubation,98%
same,yield of 23-nt oligo (+2 product),[1]; 30 minutes of incubation,2%
same,yield of 24-nt oligo (+3 product),[1]; 30 minutes of incubation,not observed
"NCC#Cc1cn([C@H]2C[C@H](O)[C@@H](COP(=O)(O)OP(=O)(O)OP(=O)(O)O)O2)c(=O)[nH]c1=O [propargylamino-dUTP, reference compound]",incorporation by TdT compared to that of dTTP,"[1]; Lanes 6-7, FIG. 2A",significantly slower
"Cc1cn([C@H]2C[C@H](OCN=[N+]=[N-])[C@@H](COP(=O)(O)OP(=O)(O)OP(=O)(O)O)O2)c(=O)[nH]c1=O [3′-O-azidomethyl-dTTP, reference compound]",incorporation by TdT,"[1]; nucleotide 1 μM to 32 μM, 10 minutes of incubation at 37° C. (FIG. 4)",unable to incorporate
N3-PEG12-dUTP [Compound 3],yield of 22-nt oligo (+1 product),[1]; [4],94%
same,yield of 23-nt oligo (+2 product),[1]; 30 minutes of incubation,13%
same,yield of 24-nt oligo (+3 product),[1]; 30 minutes of incubation,not observed
N3-PEG23-nitrobenzyl-dUTP [Compound 5],incorporation by TdT,"[1]; nucleotide 20 μM (Lane 10, FIG. 4)",could be incorporated
same,reaction time in which quantitative incorporation was achieved,"[1]; optimized conditions, incorporation time varied from 5 to 9 minutes (FIG. 3)",≤ 7 min
same,product after 2 cycles of incorporation and photocleavage of PEG moiety,[3],the desired 23-nt oligo
